# Assays:
# [1] = tested on: SNB-75; experiment: Anticancer activity against human SNB-75 cells assessed as cell growth inhibition at 10 uM incubated for 48 hrs by SRB assay relative to control; type: functional; details: read-out: GI
# [2] = tested on: NCI-H23; experiment: Anticancer activity against human NCI-H23 cells assessed as cell growth inhibition at 10 uM incubated for 48 hrs by SRB assay relative to control; type: functional; details: read-out: GI
# [3] = tested on: ACHN; experiment: Anticancer activity against human ACHN cells assessed as cell growth inhibition at 10 uM incubated for 48 hrs by SRB assay relative to control; type: functional; details: read-out: GI
# [4] = tested on: HOP-92; experiment: Anticancer activity against human HOP-92 cells assessed as cell growth inhibition at 10 uM incubated for 48 hrs by SRB assay relative to control; type: functional; details: read-out: GI
# [5] = tested on: HCT-15; experiment: Anticancer activity against human HCT-15 cells assessed as cell growth inhibition at 10 uM incubated for 48 hrs by SRB assay relative to control; type: functional; details: read-out: GI
# [6] = tested on: IGROV-1; experiment: Anticancer activity against human IGROV-1 cells assessed as cell growth inhibition at 10 uM incubated for 48 hrs by SRB assay relative to control; type: functional; details: read-out: GI
# [7] = tested on: MDA-MB-468; experiment: Anticancer activity against human MDA-MB-468 cells assessed as cell growth inhibition at 10 uM incubated for 48 hrs by SRB assay relative to control; type: functional; details: read-out: GI
# [8] = tested on: SK-OV-3; experiment: Anticancer activity against human SK-OV-3 cells assessed as cell growth inhibition at 10 uM incubated for 48 hrs by SRB assay relative to control; type: functional; details: read-out: GI
# [9] = tested on: NCI-H226; experiment: Anticancer activity against human NCI-H226 cells assessed as cell growth inhibition at 10 uM incubated for 48 hrs by SRB assay relative to control; type: functional; details: read-out: GI
# [10] = tested on: SF-539; experiment: Anticancer activity against human SF-539 cells assessed as cell growth inhibition at 10 uM incubated for 48 hrs by SRB assay relative to control; type: functional; details: read-out: GI
# [11] = tested on: NCI/ADR-RES; experiment: Anticancer activity against human NCI/ADR-RES cells assessed as cell growth inhibition at 10 uM incubated for 48 hrs by SRB assay relative to control; type: functional; details: read-out: GI
# [12] = tested on: NCI-H460; experiment: Anticancer activity against human NCI-H460 cells assessed as cell growth inhibition at 10 uM incubated for 48 hrs by SRB assay relative to control; type: functional; details: read-out: GI
# [13] = tested on: CCRF-CEM; experiment: Anticancer activity against human CCRF-CEM cells assessed as cell growth inhibition at 10 uM incubated for 48 hrs by SRB assay relative to control; type: functional; details: read-out: GI
# [14] = biological target: Carbonic anhydrase 9 (Homo sapiens, UniProt Q16790); experiment: Inhibition of recombinant human CA 9 preincubated for 15 mins by phenol red dye based stopped flow CO2 hydration assay
# [15] = tested on: HCC 2998; experiment: Anticancer activity against human HCC 2998 cells assessed as cell growth inhibition at 10 uM incubated for 48 hrs by SRB assay relative to control; type: functional; details: read-out: GI
# [16] = tested on: NCI-H522; experiment: Anticancer activity against human NCI-H522 cells assessed as cell growth inhibition at 10 uM incubated for 48 hrs by SRB assay relative to control; type: functional; details: read-out: GI
# [17] = tested on: MDA-MB-435; experiment: Anticancer activity against human MDA-MB-435 cells assessed as cell growth inhibition at 10 uM incubated for 48 hrs by SRB assay relative to control; type: functional; details: read-out: GI
# [18] = tested on: SR; experiment: Anticancer activity against human SR cells assessed as cell growth inhibition at 10 uM incubated for 48 hrs by SRB assay relative to control; type: functional; details: read-out: GI
# [19] = tested on: SK-MEL-5; experiment: Anticancer activity against human SK-MEL-5 cells assessed as cell growth inhibition at 10 uM incubated for 48 hrs by SRB assay relative to control; type: functional; details: read-out: GI
# [20] = tested on: A498; experiment: Anticancer activity against human A498 cells assessed as cell growth inhibition at 10 uM incubated for 48 hrs by SRB assay relative to control; type: functional; details: read-out: GI
# [21] = tested on: T47D; experiment: Anticancer activity against human T47D cells assessed as cell growth inhibition at 10 uM incubated for 48 hrs by SRB assay relative to control; type: functional; details: read-out: GI
# [22] = tested on: SF-268; experiment: Anticancer activity against human SF-268 cells assessed as cell growth inhibition at 10 uM incubated for 48 hrs by SRB assay relative to control; type: functional; details: read-out: GI
# [23] = tested on: RPMI-8226; experiment: Anticancer activity against human RPMI-8226 cells assessed as cell growth inhibition at 10 uM incubated for 48 hrs by SRB assay relative to control; type: functional; details: read-out: GI
# [24] = tested on: MCF7; experiment: Anticancer activity against human MCF7 cells assessed as cell growth inhibition at 10 uM incubated for 48 hrs by SRB assay relative to control; type: functional; details: read-out: GI
# [25] = tested on: UO-31; experiment: Anticancer activity against human UO-31 cells assessed as cell growth inhibition at 10 uM incubated for 48 hrs by SRB assay relative to control; type: functional; details: read-out: GI
# [26] = tested on: OVCAR-3; experiment: Anticancer activity against human OVCAR-3 cells assessed as cell growth inhibition at 10 uM incubated for 48 hrs by SRB assay relative to control; type: functional; details: read-out: GI
# [27] = tested on: Hs-578T; experiment: Anticancer activity against human Hs-578T cells assessed as cell growth inhibition at 10 uM incubated for 48 hrs by SRB assay relative to control; type: functional; details: read-out: GI
# [28] = tested on: Malme-3M; experiment: Anticancer activity against human Malme-3M cells assessed as cell growth inhibition at 10 uM incubated for 48 hrs by SRB assay relative to control; type: functional; details: read-out: GI
# [29] = tested on: MDA-MB-231; experiment: Anticancer activity against human MDA-MB-231 cells assessed as cell growth inhibition at 10 uM incubated for 48 hrs by SRB assay relative to control; type: functional; details: read-out: GI
# [30] = tested on: SN12C; experiment: Anticancer activity against human SN12C cells assessed as cell growth inhibition at 10 uM incubated for 48 hrs by SRB assay relative to control; type: functional; details: read-out: GI
# [31] = tested on: PC-3; experiment: Anticancer activity against human PC-3 cells assessed as cell growth inhibition at 10 uM incubated for 48 hrs by SRB assay relative to control; type: functional; details: read-out: GI
# [32] = tested on: UACC-257; experiment: Anticancer activity against human UACC-257 cells assessed as cell growth inhibition at 10 uM incubated for 48 hrs by SRB assay relative to control; type: functional; details: read-out: GI
# [33] = tested on: HCT-116; experiment: Anticancer activity against human HCT-116 cells assessed as cell growth inhibition at 10 uM incubated for 48 hrs by SRB assay relative to control; type: functional; details: read-out: GI
# [34] = tested on: A549; experiment: Anticancer activity against human A549 cells assessed as cell growth inhibition at 10 uM incubated for 48 hrs by SRB assay relative to control; type: functional; details: read-out: GI
# [35] = tested on: SK-MEL-2; experiment: Anticancer activity against human SK-MEL-2 cells assessed as cell growth inhibition at 10 uM incubated for 48 hrs by SRB assay relative to control; type: functional; details: read-out: GI
# [36] = tested on: HT-29; experiment: Anticancer activity against human HT-29 cells assessed as cell growth inhibition at 10 uM incubated for 48 hrs by SRB assay relative to control; type: functional; details: read-out: GI
# [37] = tested on: LOX IMVI; experiment: Anticancer activity against human LOX IMVI cells assessed as cell growth inhibition at 10 uM incubated for 48 hrs by SRB assay relative to control; type: functional; details: read-out: GI
# [38] = tested on: SW-620; experiment: Anticancer activity against human SW-620 cells assessed as cell growth inhibition at 10 uM incubated for 48 hrs by SRB assay relative to control; type: functional; details: read-out: GI
# [39] = tested on: CAKI-1; experiment: Anticancer activity against human CAKI-1 cells assessed as cell growth inhibition at 10 uM incubated for 48 hrs by SRB assay relative to control; type: functional; details: read-out: GI
# [40] = tested on: KM12; experiment: Anticancer activity against human KM12 cells assessed as cell growth inhibition at 10 uM incubated for 48 hrs by SRB assay relative to control; type: functional; details: read-out: GI
Structure (SMILES),inhibition of growth at 10 µM [1] [%],inhibition of growth at 10 µM [2] [%],inhibition of growth at 10 µM [3] [%],inhibition of growth at 10 µM [4] [%],inhibition of growth at 10 µM [5] [%],inhibition of growth at 10 µM [6] [%],inhibition of growth at 10 µM [7] [%],inhibition of growth at 10 µM [8] [%],inhibition of growth at 10 µM [9] [%],inhibition of growth at 10 µM [10] [%],inhibition of growth at 10 µM [11] [%],inhibition of growth at 10 µM [12] [%],inhibition of growth at 10 µM [13] [%],Ki [14] [nM],inhibition of growth at 10 µM [15] [%],inhibition of growth at 10 µM [16] [%],inhibition of growth at 10 µM [17] [%],inhibition of growth at 10 µM [18] [%],inhibition of growth at 10 µM [19] [%],inhibition of growth at 10 µM [20] [%],further results
NS(=O)(=O)c1ccc(Nc2nc(N/N=C/c3ccc(Cl)cc3)nc(Nc3ccccc3)n2)cc1,< 10,12,< 10,< 10,23,33,33,< 10,18,46,< 10,27,80,22.6,23,20,42,81,30,23,inhibition of growth at 10 µM [21]: 55%; inhibition of growth at 10 µM [22]: 26%; inhibition of growth at 10 µM [23]: 45%; inhibition of growth at 10 µM [24]: 61%; inhibition of growth at 10 µM [25]: 17%; inhibition of growth at 10 µM [26]: 29%; inhibition of growth at 10 µM [27]: 35%; inhibition of growth at 10 µM [28]: 11%; inhibition of growth at 10 µM [29]: 13%; inhibition of growth at 10 µM [30]: 18%; inhibition of growth at 10 µM [31]: 48%; inhibition of growth at 10 µM [32]: 10%; inhibition of growth at 10 µM [33]: 55%; inhibition of growth at 10 µM [34]: 37%; inhibition of growth at 10 µM [35]: 18%; inhibition of growth at 10 µM [36]: 65%; inhibition of growth at 10 µM [37]: 39%; inhibition of growth at 10 µM [38]: < 10%; inhibition of growth at 10 µM [39]: 37%; inhibition of growth at 10 µM [40]: 36%
NS(=O)(=O)c1ccc(Nc2nc(N/N=C/c3cccc4ccccc34)nc(Nc3ccccc3)n2)cc1,< 10,10,18,< 10,29,26,< 10,< 10,19,22,< 10,13,81,28.1,15,24,41,65,29,< 10,inhibition of growth at 10 µM [21]: 55%; inhibition of growth at 10 µM [22]: 12%; inhibition of growth at 10 µM [23]: 51%; inhibition of growth at 10 µM [24]: 46%; inhibition of growth at 10 µM [25]: 18%; inhibition of growth at 10 µM [26]: 23%; inhibition of growth at 10 µM [27]: 11%; inhibition of growth at 10 µM [28]: 19%; inhibition of growth at 10 µM [29]: < 10%; inhibition of growth at 10 µM [30]: 12%; inhibition of growth at 10 µM [31]: 44%; inhibition of growth at 10 µM [32]: < 10%; inhibition of growth at 10 µM [33]: 45%; inhibition of growth at 10 µM [34]: 26%; inhibition of growth at 10 µM [35]: 17%; inhibition of growth at 10 µM [36]: 36%; inhibition of growth at 10 µM [37]: 44%; inhibition of growth at 10 µM [38]: < 10%; inhibition of growth at 10 µM [39]: 23%; inhibition of growth at 10 µM [40]: 27%

# From ChEMBL document CHEMBL5154747, “Discovery of new carbonic anhydrase IX inhibitors as anticancer agents by toning the hydrophobic and hydrophilic rims of the active site to encounter the dual-tail approach” (Eur J Med Chem, 2022)
